# In patent US20240327364A1, “THERAPEUTIC TARGETING OF GPR68 TO INDUCE FERROPTOSIS” (University Of Maryland, Baltimore, priority 2023, published 2024):
# Tests used:
# FAK = target: T1, FAK (Homo sapiens, UniProt Q05397); test: KinomeScan; type: binding; settings: read-out: % Control
# T1 construct: purchased DiscoveRx (Fremont, CA)
# NTR1 = target: T2, NTR1 (Homo sapiens, UniProt P30989); test: GPCR Profiler; type: cell-based
# T2 construct: host or cells: Chem-1 cells expressing Gα15
# SLK = target: T3, SLK (Homo sapiens, UniProt Q9H2G2); test: KinomeScan; type: binding; settings: read-out: % Control
# T3 construct: purchased DiscoveRx (Fremont, CA)
# T3 sequence (Q9H2G2 whole entry): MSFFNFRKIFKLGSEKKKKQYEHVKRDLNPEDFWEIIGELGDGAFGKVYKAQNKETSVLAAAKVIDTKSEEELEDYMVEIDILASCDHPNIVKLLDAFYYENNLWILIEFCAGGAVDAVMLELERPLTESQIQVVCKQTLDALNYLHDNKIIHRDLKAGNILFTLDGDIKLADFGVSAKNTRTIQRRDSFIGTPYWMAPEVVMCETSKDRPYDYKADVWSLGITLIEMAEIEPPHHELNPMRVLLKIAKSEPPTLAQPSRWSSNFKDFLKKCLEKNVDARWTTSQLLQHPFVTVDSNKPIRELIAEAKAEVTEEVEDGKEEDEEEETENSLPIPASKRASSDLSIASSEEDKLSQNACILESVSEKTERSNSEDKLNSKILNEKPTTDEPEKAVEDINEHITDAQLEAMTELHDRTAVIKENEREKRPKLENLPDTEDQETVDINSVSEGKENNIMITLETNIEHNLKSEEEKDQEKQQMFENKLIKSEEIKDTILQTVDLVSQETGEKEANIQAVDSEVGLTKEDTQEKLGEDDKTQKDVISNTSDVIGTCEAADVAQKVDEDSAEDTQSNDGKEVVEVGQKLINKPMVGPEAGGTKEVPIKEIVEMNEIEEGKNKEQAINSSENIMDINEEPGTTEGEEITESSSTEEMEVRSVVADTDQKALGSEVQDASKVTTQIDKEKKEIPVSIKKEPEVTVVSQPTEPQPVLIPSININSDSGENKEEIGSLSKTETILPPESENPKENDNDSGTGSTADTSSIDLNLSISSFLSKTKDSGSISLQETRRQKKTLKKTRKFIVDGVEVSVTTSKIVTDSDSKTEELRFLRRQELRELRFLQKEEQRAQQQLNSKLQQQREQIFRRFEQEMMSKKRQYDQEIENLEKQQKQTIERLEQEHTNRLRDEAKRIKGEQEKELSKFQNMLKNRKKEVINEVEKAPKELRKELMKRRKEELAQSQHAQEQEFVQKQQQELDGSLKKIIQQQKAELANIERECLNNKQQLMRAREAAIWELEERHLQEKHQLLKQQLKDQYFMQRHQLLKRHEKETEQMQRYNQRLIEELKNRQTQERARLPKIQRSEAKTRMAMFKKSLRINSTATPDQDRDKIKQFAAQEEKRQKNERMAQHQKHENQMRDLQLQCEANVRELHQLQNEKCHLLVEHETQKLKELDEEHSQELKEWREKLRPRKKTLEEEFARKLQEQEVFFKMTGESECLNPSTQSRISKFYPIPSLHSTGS
# FLT3(K663Q) = target: T4, FLT3(K663Q) (Homo sapiens, UniProt P36888, K663Q); test: KinomeScan; type: binding; settings: read-out: % Control
# T4 construct: purchased DiscoveRx (Fremont, CA)
# TAOK2 = target: T5, TAOK2 (Homo sapiens, UniProt Q9UL54); test: KinomeScan; type: binding; settings: read-out: % Control
# T5 construct: purchased DiscoveRx (Fremont, CA)
# SIK = target: T6, SIK (Homo sapiens, UniProt P57059); test: KinomeScan; type: binding; settings: read-out: % Control
# T6 construct: purchased DiscoveRx (Fremont, CA)
# PIM3 = target: T7, PIM3 (Homo sapiens, UniProt Q86V86); test: KinomeScan; type: binding; settings: read-out: % Control
# T7 construct: purchased DiscoveRx (Fremont, CA)
# Lpa1 = Lpa1 (Homo sapiens, UniProt Q92633); test: GPCR Profiler; type: cell-based
# Lpa1, sequence (Q92633 whole entry, species assumed): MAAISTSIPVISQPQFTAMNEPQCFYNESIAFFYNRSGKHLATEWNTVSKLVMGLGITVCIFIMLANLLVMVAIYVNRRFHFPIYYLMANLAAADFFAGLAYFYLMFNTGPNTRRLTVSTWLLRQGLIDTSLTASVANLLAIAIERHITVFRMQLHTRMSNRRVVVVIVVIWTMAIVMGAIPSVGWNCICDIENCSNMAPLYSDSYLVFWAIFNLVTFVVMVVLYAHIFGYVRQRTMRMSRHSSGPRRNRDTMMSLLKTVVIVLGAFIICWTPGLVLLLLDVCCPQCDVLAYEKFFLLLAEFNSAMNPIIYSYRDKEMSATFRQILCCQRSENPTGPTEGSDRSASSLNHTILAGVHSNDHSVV
# CB2 = target: T8, CB2 (Homo sapiens, UniProt P34972); test: GPCR Profiler; type: cell-based
# T8 construct: host or cells: Chem-1 cells with promiscuous Gα15
# T8 sequence (P34972 whole entry, species assumed): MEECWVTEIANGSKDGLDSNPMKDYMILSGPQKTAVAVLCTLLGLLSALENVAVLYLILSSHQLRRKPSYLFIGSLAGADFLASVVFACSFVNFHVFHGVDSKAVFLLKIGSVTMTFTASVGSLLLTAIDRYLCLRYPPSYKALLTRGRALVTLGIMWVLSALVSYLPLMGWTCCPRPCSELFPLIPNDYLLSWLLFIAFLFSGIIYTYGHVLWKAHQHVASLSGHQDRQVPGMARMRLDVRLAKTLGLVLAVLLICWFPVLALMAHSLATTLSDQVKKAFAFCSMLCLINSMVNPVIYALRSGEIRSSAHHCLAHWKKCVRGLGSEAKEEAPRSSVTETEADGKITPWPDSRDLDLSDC
# CCK1 = target: T9, CCK1 (Homo sapiens, UniProt P32238); test: GPCR Profiler; type: cell-based
# T9 construct: host or cells: Chem-1 cells with promiscuous Gα15
# T9 sequence (P32238 whole entry): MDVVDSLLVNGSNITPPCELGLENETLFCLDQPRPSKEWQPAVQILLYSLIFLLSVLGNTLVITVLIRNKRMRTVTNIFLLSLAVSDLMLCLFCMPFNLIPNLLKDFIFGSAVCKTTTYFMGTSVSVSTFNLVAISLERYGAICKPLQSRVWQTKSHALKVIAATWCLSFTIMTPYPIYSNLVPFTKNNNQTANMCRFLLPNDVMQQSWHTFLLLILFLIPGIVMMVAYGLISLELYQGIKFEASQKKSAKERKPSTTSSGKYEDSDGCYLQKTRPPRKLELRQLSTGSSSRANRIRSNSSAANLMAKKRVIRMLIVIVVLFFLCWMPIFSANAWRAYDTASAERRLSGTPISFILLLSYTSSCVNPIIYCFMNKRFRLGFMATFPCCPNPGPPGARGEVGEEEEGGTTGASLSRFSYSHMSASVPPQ
# PIM1 = target: T10, PIM1 (Homo sapiens, UniProt P11309); test: KinomeScan; type: binding; settings: read-out: % Control
# T10 construct: purchased DiscoveRx (Fremont, CA)
# T10 sequence (P11309 whole entry): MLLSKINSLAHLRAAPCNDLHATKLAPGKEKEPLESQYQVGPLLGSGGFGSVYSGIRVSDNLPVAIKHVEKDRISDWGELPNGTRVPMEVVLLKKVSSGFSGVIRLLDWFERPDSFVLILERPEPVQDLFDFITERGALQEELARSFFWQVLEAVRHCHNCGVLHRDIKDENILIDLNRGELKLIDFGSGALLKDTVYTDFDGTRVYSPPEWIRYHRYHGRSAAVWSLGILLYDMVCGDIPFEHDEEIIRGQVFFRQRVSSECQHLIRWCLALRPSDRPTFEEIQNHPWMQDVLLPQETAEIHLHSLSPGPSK
# P2Y2 = target: T11, P2Y2 (Homo sapiens, UniProt P41231); test: GPCR Profiler; type: cell-based
# T11 construct: host or cells: Chem-1 cells expressing Gα15
# T11 sequence (P41231 whole entry, species assumed): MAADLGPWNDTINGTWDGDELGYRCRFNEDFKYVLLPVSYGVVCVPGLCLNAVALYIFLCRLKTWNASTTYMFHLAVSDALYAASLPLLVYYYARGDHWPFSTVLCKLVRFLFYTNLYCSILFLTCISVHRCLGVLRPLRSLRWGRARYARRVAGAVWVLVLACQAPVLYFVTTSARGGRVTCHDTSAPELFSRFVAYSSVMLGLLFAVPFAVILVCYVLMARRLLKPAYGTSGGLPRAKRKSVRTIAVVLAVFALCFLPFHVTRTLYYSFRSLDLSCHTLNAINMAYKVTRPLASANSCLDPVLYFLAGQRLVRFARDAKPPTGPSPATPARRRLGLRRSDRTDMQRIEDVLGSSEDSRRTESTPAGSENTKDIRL
# MARK2 = target: T12, MARK2 (Homo sapiens, UniProt Q7KZI7); test: KinomeScan; type: binding; settings: read-out: % Control
# T12 construct: purchased DiscoveRx (Fremont, CA)
# CDC2L2 = target: T13, CDC2L2 (Homo sapiens, UniProt Q9UQ88); test: KinomeScan; type: binding; settings: read-out: % Control
# T13 construct: purchased DiscoveRx (KinomeScan service)
# PAC1 = target: T14, PAC1 (Homo sapiens, UniProt P41586); test: GPCR Profiler; type: cell-based
# T14 construct: host or cells: Chem-1 cells with Gα15
# T14 sequence (P41586 21-468): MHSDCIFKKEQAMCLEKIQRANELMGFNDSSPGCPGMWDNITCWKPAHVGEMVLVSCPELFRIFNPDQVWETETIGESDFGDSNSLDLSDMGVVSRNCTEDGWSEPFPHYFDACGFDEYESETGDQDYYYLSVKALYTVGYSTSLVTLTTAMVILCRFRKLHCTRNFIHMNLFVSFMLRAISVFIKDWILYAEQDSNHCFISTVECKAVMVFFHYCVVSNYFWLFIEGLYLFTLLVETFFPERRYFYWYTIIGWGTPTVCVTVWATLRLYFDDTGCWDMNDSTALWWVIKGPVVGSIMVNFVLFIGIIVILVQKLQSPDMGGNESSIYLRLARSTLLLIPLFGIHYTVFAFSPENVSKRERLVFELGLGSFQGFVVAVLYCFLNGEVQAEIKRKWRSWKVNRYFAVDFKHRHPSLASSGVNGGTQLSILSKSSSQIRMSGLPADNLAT
# IRAK4 = target: T15, IRAK4 (Homo sapiens, UniProt Q9NWZ3); test: KinomeScan; type: binding; settings: read-out: % Control
# T15 construct: purchased DiscoveRx (Fremont, CA)
# ERK8 = target: T16, ERK8 (Homo sapiens, UniProt Q8TD08); test: KinomeScan; type: binding; settings: read-out: % Control
# T16 construct: purchased DiscoveRx (Fremont, CA)
# HIPK3 = target: T17, HIPK3 (Homo sapiens, UniProt Q9H422); test: KinomeScan; type: binding; settings: read-out: % Control
# T17 construct: purchased DiscoveRx (Fremont, CA)
# NEK4 = target: T18, NEK4 (Homo sapiens, UniProt P51957); test: KinomeScan; type: binding; settings: read-out: % Control
# T18 construct: purchased DiscoveRx
# GL261Luc = test: Cell Titer-Glo viability, Glioblastoma; type: cell-based
# Description: (§1) OGM2 kills wide variety of cancer cell types. Cell sensitivity can be classified in to Very Sensitive (LC50<2 μM), Sensitive (LC50=2 to 10 μM), Mildly Sensitive (LC50>10 μM), and Refractory (no killing at 10 μM). The listed established cell were incubated with OGM2 at 2 μM or 10 μM for 72 hours under standard cell culture conditions, and relative cell number was assessed using Cell Titer-Glo Luminescent Cell Viability Assay (Promega™) following the manufacturer's instructions. Luminescence was determined using a Cytation 5 reader and Gen5 software package (BioTek™).
# (§2) Cancer cells, which are very sensitive to killing by OGM2 (LCs <2 μM), with reported mRNA expression of GPR68 and the related proton sensing receptor GPR4. LC50's (concentrations causing 50% lethality) were determined using CellTiter-Glo (Promega™, G7570). Cells were plated in 12-well plates (CELLTREAT Scientific Products, 229112) in 1 ml of DMEM with high glucose, GlutaMAX, HEPES, or RPMI 1640 with Penicillin-Streptomycin (ThermoFisher™, 10564029, 11875119 and 15140122) and 10% FBS. Cells were incubated overnight at 37° C. in 5% CO2. Then 1 mL of fresh media was added with DMSO, OGM, or positive control (Erastin; APExBIO Technology, LLC, B1524) and cells incubated for 3 days. On the third day, all media was removed, cells were rinsed with 1×PBS, PBS was removed, and 200 μL of 1× Passive Lysis Buffer (Promega™, E1941) was added to each well. […]. Subsequently, 20 μL of lysate was added to 100 μL CellTiter-Glo™ reagent on a LUMITRAC 200 plate (Greiner™ bio-one, 82050-726). Plates were briefly spun down and read on a GloMax-Multi Detection System (Promega™).
# (§3) The cells listed in the tables above were incubated with OGM2 at 2 μM or 10 μM for 72 hours under standard cell culture conditions, and relative cell number was assessed using Cell Titer-Glo Luminescent Cell Viability Assay (Promega™) following the manufacturer's instructions. Luminescence was determined using a Cytation 5 reader and Gen5 software package (BioTek™). RNA expression of GPR68 and GPR4 in the corresponding cancer cell lines are listed, according to the publicly available The Human Protein Atlas version 22.0 and Ensembl version 103.38 (see proteinatlas.org). The consensus normalized expression value (“nTPM”=normalize transcript per million) was calculated as the maximum nTPM value for each gene in the two data sources.
# U-87 MG = test: Cell Titer-Glo viability, Glioblastoma; type: cell-based; settings: 72 hours
# Description: as §1, §2, §3
# U-138 MG = test: Cell Titer-Glo viability, Glioblastoma; type: cell-based; settings: 72 hours
# Description: as §1, §2, §3
# KR-158-luc = test: Cell Titer-Glo viability, Glioblastoma; type: cell-based
# Description: as §1, §2, §3
# T2 sequence (P30989 whole entry, species assumed): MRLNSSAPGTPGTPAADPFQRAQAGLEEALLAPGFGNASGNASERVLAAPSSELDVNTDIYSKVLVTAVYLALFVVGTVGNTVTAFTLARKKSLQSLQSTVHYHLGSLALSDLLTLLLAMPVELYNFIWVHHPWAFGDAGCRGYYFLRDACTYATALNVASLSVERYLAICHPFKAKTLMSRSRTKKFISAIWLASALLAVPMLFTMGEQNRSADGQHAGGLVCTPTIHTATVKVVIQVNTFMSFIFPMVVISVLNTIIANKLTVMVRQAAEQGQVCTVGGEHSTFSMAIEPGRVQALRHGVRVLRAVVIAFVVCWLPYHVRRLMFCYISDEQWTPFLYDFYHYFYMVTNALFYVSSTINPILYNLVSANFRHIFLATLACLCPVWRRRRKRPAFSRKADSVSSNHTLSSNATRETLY
# T1 sequence (Q05397 whole entry): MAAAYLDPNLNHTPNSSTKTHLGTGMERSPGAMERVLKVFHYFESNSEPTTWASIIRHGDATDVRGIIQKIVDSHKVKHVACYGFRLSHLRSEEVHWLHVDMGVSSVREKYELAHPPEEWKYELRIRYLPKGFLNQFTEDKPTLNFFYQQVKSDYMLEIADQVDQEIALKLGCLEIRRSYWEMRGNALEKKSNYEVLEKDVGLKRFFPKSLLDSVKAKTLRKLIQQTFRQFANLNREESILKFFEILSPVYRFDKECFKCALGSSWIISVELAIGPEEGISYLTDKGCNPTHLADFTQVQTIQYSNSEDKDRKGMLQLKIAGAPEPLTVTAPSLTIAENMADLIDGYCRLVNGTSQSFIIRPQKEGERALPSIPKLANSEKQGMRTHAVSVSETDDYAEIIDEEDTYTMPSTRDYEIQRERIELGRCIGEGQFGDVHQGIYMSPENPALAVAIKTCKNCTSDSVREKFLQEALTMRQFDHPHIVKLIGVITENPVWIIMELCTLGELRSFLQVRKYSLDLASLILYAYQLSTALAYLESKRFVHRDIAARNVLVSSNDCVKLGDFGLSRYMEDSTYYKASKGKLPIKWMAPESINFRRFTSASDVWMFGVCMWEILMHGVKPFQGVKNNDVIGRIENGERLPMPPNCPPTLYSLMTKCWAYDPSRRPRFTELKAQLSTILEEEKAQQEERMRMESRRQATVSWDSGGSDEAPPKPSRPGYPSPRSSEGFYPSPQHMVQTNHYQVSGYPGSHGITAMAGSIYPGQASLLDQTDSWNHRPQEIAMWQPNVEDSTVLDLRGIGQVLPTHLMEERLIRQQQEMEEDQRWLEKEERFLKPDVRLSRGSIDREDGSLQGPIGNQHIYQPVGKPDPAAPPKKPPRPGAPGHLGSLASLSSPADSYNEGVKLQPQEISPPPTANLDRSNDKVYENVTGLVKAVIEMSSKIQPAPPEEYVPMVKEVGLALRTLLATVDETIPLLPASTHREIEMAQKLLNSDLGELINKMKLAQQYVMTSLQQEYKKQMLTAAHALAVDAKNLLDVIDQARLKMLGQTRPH
smiles,measurement,setting,value
"CCc1ccc2c(c1)C1(NN=C(c3cccc4ccccc34)S1)C(=O)N2 (stereo not drawn) [OGM1, 5-ethyl-5′-naphthalen-1-ylspiro[1H-indole-3,2′-3H-1,3,4-thiadiazole]-2-one]",remaining binding at 10 µM,FAK,88%
same,Antagonism,NTR1; 10 uM,1.6
same,Agonism,NTR1; 12.5 uM,1
same,remaining binding at 10 µM,SLK,90%
same,remaining binding at 10 µM,FLT3(K663Q),100%
same,remaining binding at 10 µM,TAOK2,81%
same,remaining binding at 10 µM,SIK,95%
same,remaining binding at 10 µM,PIM3,73%
same,Antagonism,Lpa1; 10 uM,89.5
same,Agonism,Lpa1; 12.5 uM,0.5
same,Antagonism,CB2; 10 uM,−13.8
same,Agonism,CB2; 12.5 uM,−2.4
same,Antagonism,CCK1; 10 uM,1.9
same,Agonism,CCK1; 12.5 uM,0.8
same,remaining binding at 10 µM,PIM1,56%
same,Antagonism,P2Y2; 10 uM,−9
same,Agonism,P2Y2; 12.5 uM,0.1
same,remaining binding at 10 µM,MARK2,100%
same,remaining binding at 10 µM,CDC2L2,93%
same,Antagonism,PAC1; 10 uM,5.8
same,Agonism,PAC1; 12.5 uM,0.9
same,remaining binding at 10 µM,IRAK4,88%
same,remaining binding at 10 µM,ERK8,100%
same,remaining binding at 10 µM,HIPK3,67%
same,remaining binding at 10 µM,NEK4,100%
CCc1ccc2c(c1)C1(NN=C(c3ccccc3)S1)C(=O)N2 (stereo not drawn) [OGM2],Class,GL261Luc,Very Sensitive (Very Sensitive (LC50<2 μM))
same,% Survival 2 μM OGM,GL261Luc; 72 hours,1.8%
same,% Survival 10 μM OGM,GL261Luc; 72 hours,0.1%
same,CC50,"GL261Luc; Mus musculus, GL261-Luc, 72 hours, read-out: LC50 (the source's name)",< 2000 nM
same,% Survival 2 μM OGM,U-87 MG,21.3%
same,% Survival 10 μM OGM,U-87 MG,10.1%
same,CC50,"U-87 MG; Homo sapiens, U-87 MG, read-out: LC50 (the source's name)",< 2000 nM
same,% Survival 2 μM OGM,U-138 MG,40.3%
same,% Survival 10 μM OGM,U-138 MG,35.0%
same,CC50,"U-138 MG; Homo sapiens, U138-MG, read-out: LC50 (the source's name)",< 2000 nM
same,Class,KR-158-luc,Very Sensitive (Very Sensitive (LC50<2 μM))
same,% Survival 2 μM OGM,KR-158-luc; 72 hours,11.4%
same,% Survival 10 μM OGM,KR-158-luc; 72 hours,4.7%
same,CC50,"KR-158-luc; Mus musculus, 72 hours, read-out: LC50 (the source's name)",< 2000 nM
